# Biological target: T1, AM2 receptor (1321N1 cells transfected with CALCRL+RAMP3) (Homo sapiens, UniProt O60896+Q16602)
# T1 construct: host or cells: 1321N1 cells
# Test: AM2 receptor inhibition, LANCE cAMP agonist-antagonist competition assay
# Type: cell-based
# Details: inhibition of AM induced cAMP activation, read-out: AM2 D2 protocol: pIC50 (converted)
# Experimental: Compounds were assessed for their ability to inhibit ligand-induced elevations of cAMP, using the Perkin Elmer LANCE cAMP assay using commercially-available cells expressing a specific receptor of interest using the following general procedure:
# Compounds were prepared in dimethyl sulfoxide (DMSO—99.9% pure) (Sigma Aldrich, Cat #: D4540) added to powder stocks to produce a 20 mM solution (100% DMSO) that was sonicated at 37° C. for 10 minutes to fully dissolve the compounds. The 20 mM stocks were diluted further in DMSO to produce a 2 mM solution that was sonicated at 37° C. for 10 minutes. 2 mM stocks were dissolved in assay/stimulation buffer to produce a 400 μM solution that was sonicated at 37° C. for 10 minutes for all cAMP assays. All stocks were stored at −20° C. Then serial dilution (Dilution factor: 10) was performed to achieve the desire experimental concentrations.
# Competition assays were performed according to the manufactures instructions using LANCE® TR-FRET cAMP assay kit (Perkin Elmer, Cat #: AD0264). Serial dilutions (3 μl/well) of the molecules were plated in a 384-well OptiPlate (Perkin Elmer, Cat #: 6007299) in duplicates. Appropriate controls (100% stimulation: Forskolin and 0% stimulation: Vehicle control) (6 μl/well) were included in each plate for data normalization. Following the compound addition, 6 μl of G-protein coupled receptor overexpressing cells/Alexa Fluor antibody solution (1:100 dilution) was added in each well at a desired density of 2500cells/well. The overexpressing cell lines were purchased from DiscoveRx, Birmingham, UK. After spinning the plate at 1000 rpm for 1 minute and vortexing briefly, the cells were pre-incubated with the compounds for 30 minutes at room temperature (covered). Then 3 μl of the equivalent peptide ligand (EC50 dose) was added to all the wells except vehicle and forskolin controls. The plate were then spun down at 1000 rpm for 1 minute and once finished they were vortexed briefly and covered. Cells were stimulated in the presence of the ligands for 15 minutes at room temperature. After stimulation 12 μl of detection mix (Europium-Chelate streptavidin/biotinylated cAMP tracer solution) was added to all wells and incubated for 60 minutes at room temperature. The plate was then read on the Enspire multimode Plate reader (Perkin Elmer), at; 320/340 nm excitation and 615/665 nm emission was recorded.
# Assay/Stimulation Buffer (30 mL)—pH 7.4 • 28 mL Hank's Balanced salt solution (+MgCl2, +CaCl2)—(Thermo Fisher Cat #:14170112) • 150 μl HEPES (1M)—(Thermo Fisher Cat #:15630080) • 400 μl Stabilizer (DTPA) Purified BSA (7.5%)—(Perkin Elmer, Cat #: CR84-100)
# The ability of a compound to inhibit the AM induced cAMP activation in AM2 receptor-expressing cells (1321N1 cells transfected with CALCRL+RAMP3, sourced from DiscoverX catalogue number 95-0169C6) was assessed using the protocol above.
# T1 sequence (Q16602 23-461): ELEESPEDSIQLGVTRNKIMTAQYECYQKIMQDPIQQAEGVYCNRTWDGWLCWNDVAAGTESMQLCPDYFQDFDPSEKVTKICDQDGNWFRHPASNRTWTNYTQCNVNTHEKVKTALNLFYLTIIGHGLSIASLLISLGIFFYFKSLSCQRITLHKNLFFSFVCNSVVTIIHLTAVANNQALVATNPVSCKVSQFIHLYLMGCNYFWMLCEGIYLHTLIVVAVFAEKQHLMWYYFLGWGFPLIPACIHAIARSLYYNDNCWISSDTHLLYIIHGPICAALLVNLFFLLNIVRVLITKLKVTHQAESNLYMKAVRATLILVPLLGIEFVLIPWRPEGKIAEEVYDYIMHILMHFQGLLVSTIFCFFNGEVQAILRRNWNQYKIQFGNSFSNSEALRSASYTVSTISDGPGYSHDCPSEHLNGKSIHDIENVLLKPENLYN
# T1 sequence (O60896 24-148): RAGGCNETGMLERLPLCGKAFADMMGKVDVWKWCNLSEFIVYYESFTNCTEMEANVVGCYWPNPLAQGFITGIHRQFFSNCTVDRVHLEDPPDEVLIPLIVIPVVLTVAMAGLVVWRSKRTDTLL
row,IC50 [nM],Compound
1,49,"CNCc1ccccc1CN(CC(=O)Nc1ccc2c(c1)C[C@@]1(C2)C(=O)Nc2ncccc21)C(=O)C1(C)CCN(c2cccnn2)CC1 [Example 59, (R)-4-Methyl-N-(2-((methylamino)methyl)benzyl)-N-(2-oxo-2-((2′-oxo-1,1′,2′,3-tetrahydrospiro[indene-2,3′-pyrrolo[2,3-b]pyridin]-5-yl)amino)ethyl)-1-(pyridazin-3-yl)piperidine-4-carboxamide]"
2,24,"CCC1(C(=O)N(CC(=O)Nc2ccc3c(c2)C[C@@]2(C3)C(=O)Nc3ncccc32)Cc2ccccc2CNC)CCN(C(=O)[C@@H](C)NC)CC1 [Example 77, 4-Ethyl-N-(2-((methylamino)methyl)benzyl)-1-((R)-2-(methylamino)propanoyl)-N-(2-oxo-2-(((R)-2′-oxo-1,1′,2′,3-tetrahydrospiro[indene-2,3′-pyrrolo[2,3-b]pyridin]-5-yl)amino)ethyl)piperidine-4-carboxamide]"
3,1.15,CNCc1ccccc1CN(CC(=O)Nc1ccc2c(c1)CC1(C2)C(=O)Nc2ncccc21)C(=O)C1(C)CCN(C(=O)CCN(C)C)CC1 (stereo not drawn) [Example 31]
4,55,"CNCc1ccc(F)cc1CN(CC(=O)Nc1ccc2c(c1)C[C@@]1(C2)C(=O)Nc2ncccc21)C(=O)C1(C)CCNCC1 [Example 135, (R)—N-(5-Fluoro-2-((methylamino)methyl)benzyl)-4-methyl-N-(2-oxo-2-((2′-oxo-1,1′,2′,3-tetrahydrospiro[indene-2,3′-pyrrolo[2,3-b]pyridin]-5-yl)amino)ethyl)piperidine-4-carboxamide]"
5,24.5,"CCC1(C(=O)N(CC(=O)Nc2ccc3c(c2)C[C@@]2(C3)C(=O)Nc3ncccc32)Cc2ccccc2CNC)CCN(C(=O)COCCOCCOCCOCCOC)CC1 [Example 96, (R)-4-Ethyl-1-(2,5,8,11,14-pentaoxahexadecan-16-oyl)-N-(2-((methylamino)methyl)benzyl)-N-(2-oxo-2-((2′-oxo-1,1′,2′,3-tetrahydrospiro[indene-2,3′-pyrrolo[2,3-b]pyridin]-5-yl)amino)ethyl)piperidine-4-carboxamide]"
6,38,CNCc1ccccc1CN(CC(=O)Nc1ccc2c(c1)C[C@@]1(C2)C(=O)Nc2ncccc21)C(=O)C1(C)CCN(c2ncccn2)CC1 [Example 60]
7,37.2,"CCC1(C(=O)N(CC(=O)Nc2ccc3c(c2)C[C@@]2(C3)C(=O)Nc3ncccc32)Cc2ccccc2CNC)CCN(C(=O)c2ccc(F)cn2)CC1 [Example 76, (R)-4-Ethyl-1-(5-fluoropicolinoyl)-N-(2-((methylamino)methyl)benzyl)-N-(2-oxo-2-((2′-oxo-1,1′,2′,3-tetrahydrospiro[indene-2,3′-pyrrolo[2,3-b]pyridin]-5-yl)amino)ethyl)piperidine-4-carboxamide]"
8,1.55,"CNCc1ccccc1CN(CC(=O)Nc1ccc2c(c1)C[C@@]1(C2)C(=O)Nc2ncccc21)C(=O)C1(C)CCN(CC2CCNCC2)CC1 [Example 49, (R)-4-Methyl-N-(2-((methylamino)methyl)benzyl)-N-(2-oxo-2-((2′-oxo-1,1′,2′,3-tetrahydrospiro[indene-2,3′-pyrrolo[2,3-b]pyridin]-5-yl)amino)ethyl)-1-(piperidin-4-ylmethyl)piperidine-4-carboxamide]"
9,2.34,"CNCc1ccccc1CN(CC(=O)Nc1ccc2c(c1)CC1(C2)C(=O)Nc2ncccc21)C(=O)C1(C)CCN(CC(=O)O)CC1 (stereo not drawn) [Example 45, 2-(4-Methyl-4-((2-((methylamino)methyl)benzyl)(2-oxo-2-((2′-oxo-1,1′,2′,3-tetrahydrospiro[indene-2,3′-pyrrolo[2,3-b]pyridin]-5-yl)amino)ethyl)carbamoyl)piperidin-1-yl)acetic Acid]"
10,10.5,"CNCc1ccccc1CN(CC(=O)Nc1ccc2c(c1)CC1(C2)C(=O)Nc2ncccc21)C(=O)C1(C)CCN(CC(F)(F)F)CC1 (stereo not drawn) [Example 38, 4-Methyl-N-(2-((methylamino)methyl)benzyl)-N-(2-oxo-2-((2′-oxo-1,1′,2′,3-tetrahydrospiro[indene-2,3′-pyrrolo[2,3-b]pyridin]-5-yl)amino)ethyl)-1-(2,2,2-trifluoroethyl)piperidine-4-carboxamide]"
11,6.46,"CNCc1ccccc1CN(CC(=O)Nc1ccc2c(c1)C[C@@]1(C2)C(=O)Nc2ncccc21)C(=O)C1(C)CCN(CCO)CC1 [Example 42, (R)-1-(2-Hydroxyethyl)-4-methyl-N-(2-((methylamino)methyl)benzyl)-N-(2-oxo-2-((2′-oxo-1,1′,2′,3-tetrahydrospiro[indene-2,3′-pyrrolo[2,3-b]pyridin]-5-yl)amino)ethyl)piperidine-4-carboxamide]"
12,34.7,"CCC1(C(=O)N(CC(=O)Nc2ccc3c(c2)C[C@@]2(C3)C(=O)Nc3ncccc32)Cc2ccccc2CNC)CCN(C(=O)c2cc(C(C)(C)C)n[nH]2)CC1 [Example 91, (R)-1-(3-(tert-Butyl)-1H-pyrazole-5-carbonyl)-4-ethyl-N-(2-((methylamino)methyl)benzyl)-N-(2-oxo-2-((2′-oxo-1,1′,2′,3-tetrahydrospiro[indene-2,3′-pyrrolo[2,3-b]pyridin]-5-yl)amino)ethyl)piperidine-4-carboxamide]"
13,229,"CNCc1ccccc1CN(CC(=O)Nc1ccc2c(c1)C[C@@]1(C2)C(=O)Nc2ncccc21)C(=O)C1(C)CCCNC1 (stereo partly drawn) [Example 146, 3-Methyl-N-(2-((methylamino)methyl)benzyl)-N-(2-oxo-2-(((R)-2′-oxo-1,1′,2′,3-tetrahydrospiro[indene-2,3′-pyrrolo[2,3-b]pyridin]-5-yl)amino)ethyl)piperidine-3-carboxamide]"
14,18.2,"CNCc1ccccc1CN(CC(=O)Nc1ccc2c(c1)C[C@@]1(C2)C(=O)Nc2ncccc21)C(=O)C1(C)CCN(C(=O)C[C@@H]2CCNC2)CC1 [Example 8, 4-Methyl-N-(2-((methylamino)methyl)benzyl)-N-(2-oxo-2-(((R)-2′-oxo-1,1′,2′,3-tetrahydrospiro[indene-2,3′-pyrrolo[2,3-b]pyridin]-5-yl)amino)ethyl)-1-(2-((S)-pyrrolidin-3-yl)acetyl)piperidine-4-carboxamide]"
15,4.57,"CNCc1ccccc1CN(CC(=O)Nc1ccc2c(c1)C[C@@]1(C2)C(=O)Nc2ncccc21)C(=O)C1(C)CCN(C(=O)c2cccnn2)CC1 [Example 26, (R)-4-Methyl-N-(2-((methylamino)methyl)benzyl)-N-(2-oxo-2-((2′-oxo-1,1′,2′,3-tetrahydrospiro[indene-2,3′-pyrrolo[2,3-b]pyridin]-5-yl)amino)ethyl)-1-(pyridazine-3-carbonyl) piperidine-4-carboxamide]"
16,4.27,"CNCc1ccccc1CN(CC(=O)Nc1ccc2c(c1)CC1(C2)C(=O)Nc2ncccc21)C(=O)C1(C)CCN(C(=O)C2CC2)CC1 (stereo not drawn) [Example 20, 1-(Cyclopropanecarbonyl)-4-methyl-N-(2-((methylamino)methyl)benzyl)-N-(2-oxo-2-((2′-oxo-1,1′,2′,3-tetrahydrospiro[indene-2,3′-pyrrolo[2,3-b]pyridin]-5-yl)amino)ethyl)piperidine-4-carboxamide]"
17,3.8,"CCC1(C(=O)N(CC(=O)Nc2ccc3c(c2)C[C@@]2(C3)C(=O)Nc3ncccc32)Cc2ccccc2CNC)CCN(C(=O)c2cn[nH]c2)CC1 [Example 85, (R)-4-Ethyl-N-(2-((methylamino)methyl)benzyl)-N-(2-oxo-2-((2′-oxo-1,1′,2′,3-tetrahydrospiro[indene-2,3′-pyrrolo[2,3-b]pyridin]-5-yl)amino)ethyl)-1-(1H-pyrazole-4-carbonyl)piperidine-4-carboxamide]"
18,1.1,"CNCc1ccccc1CN(CC(=O)Nc1ccc2c(c1)C[C@@]1(C2)C(=O)Nc2ncccc21)C(=O)C1(C)CCN(CCOC)CC1 [Example 41, (R)-1-(2-Methoxyethyl)-4-methyl-N-(2-((methylamino)methyl)benzyl)-N-(2-oxo-2-((2′-oxo-1,1′,2′,3-tetrahydrospiro[indene-2,3′-pyrrolo[2,3-b]pyridin]-5-yl)amino)ethyl)piperidine-4-carboxamide]"

# From patent US20230036854A1, “HETEROCYCLIC SPIRO-COMPOUNDS AS AM2 RECEPTOR INHIBITORS” (THE UNIVERSITY OF SHEFFIELD, priority 2018, published 2023)
